From patent US20260285816A1, “Piperazinyl-Modified Quinazolinyl-Aryl Urea Derivative, And Preparation Method And Use Thereof” (Guangxi Normal University, priority 2025, published 2026)
Counter-ions that a name gives are not always drawn. Like-named read-outs stand apart in the source and are kept apart here.

Legend:
Format in all cases: cell-based, human
[1] = system: 5637 cells; experiment: CCK-8 anti-proliferative assay, 5637; settings: Table 16, comparative compounds 8-1 to 8-23, co-incubated 48 h, read-out: Anti-proliferative activity (IC50 ± standard deviation) 5637
Protocol: (§1) The obtained quinazolinyl-aryl urea derivatives were screened for compounds with optimal activity using the following method.
(§2) Experimental Procedure for Anti-Proliferative Activity Evaluation: The CCK-8 assay was employed. Cells in logarithmic growth phase were harvested, adjusted to appropriate density, and uniformly seeded into 96-well plates using a multichannel pipette (180 μL cell suspension containing complete medium per well, 5,000 cells/well). Blank control wells (containing basal medium, CCK-8 solution, and DMSO only) were set. Cells were incubated at 37° C. under 5% CO2. After 70% confluency was reached, test compounds (target compounds/positive controls) were added at final concentrations of 1, 2, 4, 6, 8, 12, 16, 24, and 30 μM (3 repeated wells per concentration). Compounds were pre-dissolved in DMSO, sterilized, and diluted with medium before adding 20 μL/well. After co-incubation for designated durations, 10 μL CCK-8 solution was added per well followed by 1-4 h incubation (different cells have different incubation times). […] Inhibition rates were calculated as: (ODcontrol−ODtreatment)/ODcontrol×100%. Median inhibitory concentrations (IC50 values) were derived using Origin v8.0 software.

[2] = system: T24 cells; experiment: CCK-8 anti-proliferative assay, T24; settings: Table 16, comparative compounds 8-1 to 8-23, co-incubated 48 h, read-out: Anti-proliferative activity (IC50 ± standard deviation) T24
From the text: (§3) The obtained quinazolinyl-aryl urea derivatives were screened for compounds with optimal activity using the following method. All cell lines employed in this experiment were of human origin, including: bladder cancer cells: J82, UM-UC-3, T24, 5637, pancreatic cancer cells: BxPC-3, PANC-1, osteosarcoma cells: 143B, MG-63, cervical cancer cells: HeLa, breast cancer cells: MCF-7, NSCLC cells: A549, hepatoblastoma cells: Hep G2, and ovarian cancer cells: SK-OV-3, as well as normal cell lines: immortalized ureteral epithelial cells (SV-HUC-1), embryonic lung fibroblasts (WI-38).
(§4) Experimental Procedure for Anti-Proliferative Activity Evaluation: The CCK-8 assay was employed. Cells in logarithmic growth phase were harvested, adjusted to appropriate density, and uniformly seeded into 96-well plates using a multichannel pipette (180 μL cell suspension containing complete medium per well, 5,000 cells/well). Blank control wells (containing basal medium, CCK-8 solution, and DMSO only) were set. Cells were incubated at 37° C. under 5% CO2. After 70% confluency was reached, test compounds (target compounds/positive controls) were added at final concentrations of 1, 2, 4, 6, 8, 12, 16, 24, and 30 μM (3 repeated wells per concentration). Compounds were pre-dissolved in DMSO, sterilized, and diluted with medium before adding 20 μL/well. After co-incubation for designated durations, 10 μL CCK-8 solution was added per well followed by 1-4 h incubation (different cells have different incubation times). The reaction was terminated, and OD (optical density) values at 450 nm were measured using a microplate reader. Inhibition rates were calculated as: (ODcontrol−ODtreatment)/ODcontrol×100%. Median inhibitory concentrations (IC50 values) were derived using Origin v8.0 software.

[3] = system: A549 cells; experiment: CCK-8 anti-proliferative assay, A549; settings: Table 16, comparative compounds 8-1 to 8-23, co-incubated 48 h, read-out: Anti-proliferative activity (IC50 ± standard deviation) A549
Protocol: as §1, §2

[4] = system: MCF-7 cells; experiment: CCK-8 anti-proliferative assay, MCF-7; settings: Table 16, comparative compounds 8-1 to 8-23, co-incubated 48 h, read-out: Anti-proliferative activity (IC50 ± standard deviation) MCF-7
Protocol: as §1, §2

[5] = system: Hep G2 cells; experiment: CCK-8 anti-proliferative assay, Hep G2; settings: Table 16, comparative compounds 8-1 to 8-23, co-incubated 48 h, read-out: Anti-proliferative activity (IC50 ± standard deviation) Hep G2
From the text: as §3, §4

[6] = system: BxPC-3 cells; experiment: CCK-8 anti-proliferative assay, BxPC-3; settings: Homo sapiens, BXPC-3; Table 7; co-incubated 48 h; read-out: Anti-proliferative activity (IC50 ± standard deviation) BxPC-3
From the text: as §3, §4

[7] = system: PANC-1 cells; experiment: CCK-8 anti-proliferative assay, PANC-1; settings: Homo sapiens, PANC-1; Table 7; co-incubated 48 h; read-out: Anti-proliferative activity (IC50 ± standard deviation) PANC-1
From the text: as §3, §4

Structure (SMILES)	IC50 [1] [µM]	IC50 [2] [µM]	IC50 [3] [µM]	IC50 [4] [µM]	IC50 [5] [µM]	IC50 ([1]; Homo sapiens) [µM]	IC50 ([2]; Homo sapiens, T-24) [µM]	IC50 ([3]; Homo sapiens, A549) [µM]	IC50 ([4]; Homo sapiens, MCF7) [µM]	IC50 ([5]; Homo sapiens, HepG2) [µM]	IC50 [6] [µM]	IC50 [7] [µM]
COc1cc2ncnc(NCc3cccc(NC(=O)Nc4ccc(F)cc4)c3)c2cc1OCCCCCCN1CCN(CCN2CCOCC2)CC1 [Compound 8-11, reference compound]	17.9 ± 0.33	23.3 ± 1.82	> 30	18.3 ± 0.43	> 30	–	–	–	–	–	–	–
COc1cc2ncnc(NCc3cccc(NC(=O)Nc4ccc(F)cc4)c3)c2cc1OCCCC(=O)N1CCC(N2CCOCC2)CC1 [Compound 8-13, reference compound]	–	–	–	–	–	13.9 ± 0.43	19.5 ± 0.27	> 30	21.5 ± 0.47	> 30	–	–
COc1cc2ncnc(NCc3cccc(NC(=O)Nc4ccccc4Cl)c3)c2cc1OCCCC(=O)N1CCC(N2CCOCC2)CC1 [Compound 8-14, reference compound]	–	–	–	–	–	28.9 ± 0.53	23.1 ± 0.73	20.2 ± 0.92	18.6 ± 0.35	> 30	–	–
COc1cc2ncnc(NCc3cccc(NC(=O)Nc4ccc(Cl)cc4)c3)c2cc1OCCCC(=O)N1CCC(N2CCOCC2)CC1 [Compound 8-15, reference compound]	–	–	–	–	–	14 ± 0.72	19.1 ± 0.53	13.8 ± 0.35	16.8 ± 0.32	> 30	–	–
COc1cc2ncnc(NCc3cccc(NC(=O)Nc4c(Cl)cc(Cl)cc4Cl)c3)c2cc1OCCCC(=O)N1CCC(N2CCOCC2)CC1 [Compound 8-16, reference compound]	–	–	–	–	–	> 30	> 30	> 50	15.9 ± 0.62	> 30	–	–
COc1cc2ncnc(NCc3cccc(NC(=O)Nc4ccc(C(F)(F)F)cc4)c3)c2cc1OCCCC(=O)N1CCC(N2CCOCC2)CC1 [Compound 8-18, reference compound]	–	–	–	–	–	13.1 ± 0.24	19.6 ± 0.45	18.8 ± 0.59	13.2 ± 0.39	> 30	–	–
COc1cc2ncnc(NCc3cccc(NC(=O)Nc4ccc(F)c(C(F)(F)F)c4)c3)c2cc1OCCCC(=O)N1CCC(N2CCOCC2)CC1 [Compound 8-19, reference compound]	–	–	–	–	–	17.9 ± 0.45	26.2 ± 0.94	16.1 ± 0.71	22.4 ± 0.82	> 30	–	–
COc1cc2ncnc(NCc3cccc(NC(=O)Nc4ccccc4Cl)c3)c2cc1OCCCCCCN1CCC(CN2CCN(c3ccccn3)CC2)CC1 [Compound 8-20, reference compound]	14.1 ± 0.29	18.4 ± 0.81	22.4 ± 1.01	20.5 ± 0.38	> 30	–	–	–	–	–	–	–
COc1ccc(NC(=O)Nc2cccc(CNc3ncnc4cc(OC)c(OCCCCCCN5CCC(CN6CCN(c7ccccn7)CC6)CC5)cc34)c2)cc1 [Compound 8-21, reference compound]	6.61 ± 0.07	5.42 ± 0.05	11.9 ± 0.23	12.2 ± 0.32	14.1 ± 0.2	–	–	–	–	–	–	–
COc1cc2ncnc(NCc3cccc(NC(=O)NCc4ccccc4)c3)c2cc1OCCCC(=O)N1CCC(N2CCOCC2)CC1 [Compound 8-23, reference compound]	–	–	–	–	–	26.8 ± 0.63	> 30	> 30	23.1 ± 0.92	> 30	–	–
C#Cc1cccc(Nc2ncnc3cc(OCCOC)c(OCCOC)cc23)c1 [Erlo, erlotinib hydrochloride, reference compound]	–	–	–	–	–	–	–	–	–	–	18.3 ± 1.46	27.4 ± 1.77
